For data set [1], the system named is IGF-1 receptor. The experiment in a line: IGF-1 receptor content in LAPC-4 cells (immunoprecipitation, western blot). It counts as cell-based, human. On the procedure:
At the end of the incubation period, cells were washed twice with PBS and solubilized with lysis buffer (50 mM HEPES pH 7.6, 150 mM NaCl, 0.1% Triton X-100, 1 mM PMSF, 2 mM Na3VO4) for 1 hour at 4° C. […] The immunoprecipitated samples were run on SDS-PAGE, under reducing condition. Following transfer to nitrocellulose membrane, levels of IGF-1 receptor were assessed by western blot. Following an overnight incubation at 4° C., the membranes were washed 3 times with TBST and then incubated with HRP-conjugated anti-rabbit IgG diluted 1:50,000 in the same blocking buffer for 90 minutes at room temperature. After washing, blots were incubated with Super Signal (Pierce Chemicals, Rockford, Ill.), and exposed to film.

In data set [2] the test system is LAPC-4 prostate cancer cells. The experiment in a line: LAPC-4 prostate cancer cell growth (CyQuant or BCA cell proliferation assay). In kind it is cell-based, human. As to conditions: for block of the effect of 1 nM DHT to stimulate proliferation: much smaller effects on non-androgen mediated growth. On the procedure: LAPC-4 prostate cancer cells were maintained at 37° C., 5% CO2 in phenol-free RPMI+10% FCS RPMI. Steroid free medium consisted of phenol-free RPMI supplemented with 10% dextran-coated, charcoal-treated serum (10% CDSS RPMI). LAPC-4 cells were incubated in this steroid-free 10% CDSS RPMI for 3 days prior to plating in 96 well plates (5×10^3 cells/well). […] The medium with androgens and inhibitors was refreshed on day 3. The plates were harvested on day 7 by inverting the microplate onto paper towels with gentle blotting to remove growth medium without disrupting adherent cells and freezing them at −80° C. for at least 30 minutes. LAPC-4 prostate cancer cell growth was determined using either the CyQuant cell proliferation assay (Molecular Probes, Eugene, Oreg.) or by the BCA assay (Pierce, Rockford, Ill.). Cell proliferation was calculated as the percent of content versus control cells at day 0.
Each value shown is the mean+SD for triplicate determinations. In FIGS. 1a and 2b, cell proliferation was measured by BCA, and in FIG. 1c by the CyQuant method. In all future studies, the CyQuant method was employed to measure proliferation.

Data set [3] relates to insulin receptor (IR). As to conditions: FIG. 5c. On the procedure:
Level of insulin receptor was determined in 15 μg of total protein run on SDS-PAGE under reducing conditions, transferred to nitrocellulose membrane, and analyzed by probing with an anti-insulin receptor antibody CT-3, diluted 1:1000 in 1% milk, 1% BSA in TBST at 4° C. overnight. The secondary anti-mouse IgG, diluted 1:2000 in the same blocking buffer, was applied for 90 minutes at room temperature. Blots were incubated with SuperSignal, and exposed to film.

Data set [4] has as its system IGF-1 receptor mRNA. Briefly: IGF-1 receptor gene expression by quantitative PCR in LAPC-4 cells. It counts as cell-based, human. As to conditions: FIG. 6a. On the procedure: A large master mix of the above-mentioned components (minus the primers, probe and cDNA) was made for each experiment and aliquoted into individual tubes, one for each cDNA sample. cDNA was then added to the aliquoted master mix. The master mix with cDNA was aliquoted into a 384-well plate, with nine wells used for each cDNA sample. The primers and probes were mixed together and added to the master mix and cDNA in the 384-well plate. PCR was conducted on the ABI 7900HT (Applied Biosystems, CA) using the following cycle parameters: 1 cycle of 95° C. for 10 minutes, 40 cycles of 95° C. for 15 seconds, 60° C. for 1 minute. Analysis was carried out using the SDS software (version 2.3) supplied with the ABI 7900HT. The Ct values for each set of three reactions were averaged for all subsequent calculations. PCR primer and TaqMan probe sequences were either synthesized by Integrated DNA Technologies (Coralville, Iowa) or purchased from Applied Biosystems (Foster City, Calif.).

The subject of data set [5] is LAPC-4 cells. The experiment in a line: LAPC-4 growth in soft agar (anchorage independent growth), CyQuant. In kind it is cell-based, human. As to conditions: 1 nM DHT, 6 days, FIG. 3b.
Data set [6] concerns patients with both androgen-dependent and androgen-independent prostate cancer. As to conditions: Ryan et al. (2008), cited from earlier work.

For `C[C@]12CCC(=O)C[C@@H]1CC[C@@H]1[C@@H]2CC[C@]2(C)[C@@H](O)CC[C@@H]12` [DHT, dihydrotestosterone], in data set [1] (FIG. 5b), the “concentration at which a significant effect on IGF-1 receptor content was observed” value was found to be 0.1 nM. Further, the “effect on content of the IGF-1 receptor” value in data set [1] (western blot, FIG. 5a) is listed as “markedly increased”. Further, in data set [2] (DHT at 10 nM, 7 days, 3 separate experiments, mean+SEM), the “affect to stimulate growth above control” value is listed as 83+8%. Besides, the “concentration at which a major effect on proliferation was observed” value in data set [2] (FIG. 1b) is 0.1 nM. For the same molecule, the “change in content of insulin receptor (IR)” value in data set [3] was “no change”. Also, the “concentration that maximally increases IGF-1 receptor gene expression” value in data set [4] came out at 0.1 nM.

For `C[C@H](Cc1ccc(O)c(O)c1)[C@@H](C)Cc1ccc(O)c(O)c1` [NDGA, Meso-nordihydroguaiaretic acid], the IC50 in data set [1] (read-out: effects to inhibit DHT-induced IGF-1 receptor content, 3 separate experiments, mean+SEM, FIG. 5e) came to 11 µM; in data set [2] (Homo sapiens, LAPC4, 5 separate experiments, mean+SEM, read-out: half-maximal effect to inhibit androgen-stimulated growth), 5 µM. For the same molecule, the “inhibition of the effect of DHT on growth in soft agar” value in data set [5] was “inhibited anchorage independent growth”. Moreover, the clinical safety entry in data set [6] is given as “reasonable safety”. For the same molecule, the “effect on PSA” value in data set [6] (patients with non-castrate levels of testosterone and a rising PSA) was “modest declines in PSA”. Besides, the “inhibition of the effect of DHT to increase expression of IGF-1 receptor” value in data set [4] (NDGA at 10 μM) is given as “completely inhibit”.

Regarding `Nc1ncnc2c1c(-c1cccc(OCc3ccccc3)c1)cn2C1CC(CN2CCC2)C1` (centres unmarked) [NVP-AEW541], the “block of the effect of 1 nM DHT to stimulate proliferation” value in data set [2] is “completely blocked”.

As to `COc1cc([C@@H]2c3cc4c(cc3[C@H](O)[C@H]3COC(=O)[C@@H]23)OCO4)cc(OC)c1OC` [PPP, picropodophyllin], in data set [2], the “block of the effect of 1 nM DHT to stimulate proliferation” value was “completely blocked”.

The record behind these values is patent US20090280112A1 (The Regents of the University of California, priority 2008, published 2009).
